# Test results: patent publication US9102667B2, “N-arylaminomethylene benzothiophenones for treatment of cardiovascular disease” (FORSCHUNGSVERBUND BERLIN E.V., priority 2011, dated 2015)
# Target: AKAP-PKA interaction (Homo sapiens, UniProt P13861)
# Test: AKAP-PKA interaction (disruption) assays of Examples 1-3: alpha screen, surface plasmon resonance, ELISA (combined classification)
# Format: binding
# Details: absolute values stated in structure-activity text; method not specified; read-out: IC50
# Description: The inhibition of the interaction of the alpha RII subunit of protein kinase A with AKAP18-alpha by the compounds according to the invention is determined as follows:
# The experiment measures the suitability of candidate compounds for the inhibition of the interaction between AKAP and PKA. An AKAP-GST fusion construct is immobilized on glutathione donor beads and His-RII-alpha on Ni-chelate acceptor beads. To the extent that the partners interact, singlet oxygen from the donor beads becomes free and activates the fluorescence emission of the acceptor beads. The fluorescence emission determined in the microplate reader is proportional to the intensity of interaction of the protein partners. The IC50 is determined from the results of the measurement of several concentrations of one candidate compound.
# The details of the process were as follows: Two protein Solutions A and B are produced in a buffer (phosphate NaCl buffer, 0.1% polysorbate 80, 0.1% [=1 mg/ml BSA]). These contain (A) the histidine-6-tagged fusion construct RII-alpha-His (3.125 nmol/l) and (B) the glutathione-S-transferase-tagged fusion construct GST-AKAP18-alpha-d2-10 (6.25 nmol/l). One volume unit each of protein solution and bead suspension are incorporated, specifically Solution A of the His6-tagged protein with Ni-chelate bead suspension and Solution B of the GST-fusion protein with glutathione beads (Perkin Elmer Product No. 6765302), and in doing so the concentrations are selected according to the manufacturers information. The Mixtures A and B obtained are incubated for one hour at room temperature (RT) in the dark.
# Then, 5 μl of Mixture A is laid out for each hole on a 384-hole microtiter plate, and then to start with 0.5 μl of a solution of the candidate compound in DMSO is added and then 5 μl of Mixture B. The resulting reaction mixture is incubated 1 h at RT in the dark. Then, the reaction is tempered to 28.5° C., and the emitter intensity of the acceptor is determined in a microtiter plate reader after excitation of the donor at 680 nm.
# The relative inhibition of the AKAP-PKA interaction is calculated following the formula: 1−(xc−y)/(z−y) where: X=average of readings (n=3) at concentration c; Y=average of measurement data from bead-bead check (n=6); Z=average of measurement data from protein-protein check (n=6). Results:
# Surface plasmon resonance analyses for competition in solution were performed with streptavidin-coated sensor chips (GE Healthcare, Uppsala, Sweden). The N-terminal biotinylated peptide AKAP18d-L314E was used, which is a variant of the RH-binding domains of AKAP18δ (Hundsrucker et al., Biochem. J. 396, 297-306, [2006]). The binding of the regulatory subunit of the human PKAII-α or RII-β onto the peptide surface of the AKAP18δ-L314E, or the inhibition of this binding to RII by the compounds of the invention, was measured on a Biacaore 3000 machine (Biacore/GE Healthcare) as previously described (Henn et al., J Biol Chem 279, 26654-26665 [2004]). The compounds were injected for 60 sec at a flow rate of 30 μl/min, and the dissociation phase was measured for 180 sec.
# Multititer plates (Corning B.V. Life Sciences, Schiphol-Rijk, Netherlands) were coated with recombinantly produced PKA RIIα (15 ng/hole) by incubation with phosphate buffer containing protease inhibitors (1 h, 22° C.). The plate was then blocked with lactoprotein.
# GST-AKA7δ (Hundsrucker et al., Biochem. J. 396, 297-306, [2006]; 15 ng/well) was incubated with and without candidate compounds on the plate for 1 h at 22° C. After washing, it was incubated with antibodies (rabbit) against AKA7δ (A18δ3) and then with a peroxidase-conjugated antirabbit antibody and developed with dye substrate (LumiLight Western Blotting Substrate, Roche Diagnostics, Mannheim, Germany). Luminescence activity was determined in a microplate reader (GeniosPro, Tecan, Durham, N.C., United States) at 10 msec integration.
# Chain of AKAP-PKA interaction (P13861 2-404 limits assumed): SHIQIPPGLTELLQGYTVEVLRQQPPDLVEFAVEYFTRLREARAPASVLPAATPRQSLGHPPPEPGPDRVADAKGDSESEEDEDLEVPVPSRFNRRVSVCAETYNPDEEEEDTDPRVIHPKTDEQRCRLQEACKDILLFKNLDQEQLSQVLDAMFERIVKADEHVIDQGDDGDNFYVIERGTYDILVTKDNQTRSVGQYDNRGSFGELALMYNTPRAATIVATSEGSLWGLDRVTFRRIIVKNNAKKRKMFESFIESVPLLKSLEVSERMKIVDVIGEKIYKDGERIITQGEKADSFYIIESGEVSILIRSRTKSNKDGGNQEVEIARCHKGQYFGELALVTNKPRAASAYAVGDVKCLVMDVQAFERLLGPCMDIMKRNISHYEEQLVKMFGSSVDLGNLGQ
row,IC50 [µM],Compound
1,~80,"O=C1/C(=C/Nc2ncc[nH]2)Sc2ccccc21 [T2/1, (2Z)-2-[(1H-imidazole-2-ylamino)methylene]benzothiophene-3-one]"
2,~80,"O=C1/C(=C/Nc2nccs2)Sc2ccccc21 [T2/6, (2Z)-2-[(thiazole-2-ylamino)methylene]benzothiophene-3-one]"
3,1 to 5,"O=C1/C(=C/Nc2ncc([N+](=O)[O-])s2)Sc2ccccc21 [T2/12, (2Z)-2-[[(5-nitrothiazole-2-yl)amino]methylene]benzothiophene-3-one]"

# Same assay, conditions: alkyl substituent on heteroaromatic pentacycle
row,IC50 relative to that of the unsubstituted mother compound,Compound
1,about 50%,"Cc1csc(N/C=C2\Sc3ccccc3C2=O)n1 [T2/10, (2Z)-2-[[(4-methylthiazole-2-yl)amino]methylene]benzothiophene-3-one]"

# Same assay, conditions: assays of Examples 1-3
row,Activity in AKAP-PKA interaction assays (in words),Compound
1,barely detectable activity,"O=C1/C(=C\Nc2cccc3ccccc23)Sc2ccccc21 [T2/39, (2e)-2-[(1-naphthylamino)methylene]benzothiophene-3-one]"

# Same assay, conditions: class from IC50 values in assays of Examples 1, 2 or 3
row,Compound,Activity (IC50 class)
1,"COC(=O)c1cnc(N/C=C2\Sc3ccccc3C2=O)s1 [T2/17, 2-[[(z)-(3-oxobenzothiophene-2-ylidene)methyl]amino]thiazole-5-carboxylic acid methylester]",2-[[(z)-(3-oxobenzothiophene-2-ylidene)methyl]amino]thiazole-5-carboxylic acid methylester Activity: A(A)
2,"N=C(N)c1cnc(N/C=C2\Sc3ccccc3C2=O)s1 [T2/21, 2-[[(Z)-(3-oxobenzothiophen-2-ylidene)methyl]amino]thiazole-5-carboxamidine]",2-[[(Z)-(3-oxobenzothiophen-2-ylidene)methyl]amino]thiazole-5-carboxamidine Activity: A/B
3,"O=C1/C(=C/Nc2nc3ccccc3s2)Sc2ccccc21 [T2/23, (2Z)-2-[(1,3-benzothiazol-2-ylamino)methylene]-benzothiophen-3-one]","(2Z)-2-[(1,3-benzothiazol-2-ylamino)methylene]- benzothiophen-3-one Activity A/B"

# Same assay, conditions: class from IC50 values in assays of Examples 1, 2 or 3; read-out: Activity (IC50 class)
row,IC50 [µM],Compound
1,< 150,"O=C1/C(=C/Nc2ncc[nH]2)Sc2ccccc21 [T2/1, (2Z)-2-[(1H-imidazole-2-ylamino)methylene]benzothiophene-3-one]"
2,< 150,"O=C1/C(=C/Nc2nccs2)Sc2ccccc21 [T2/6, (2Z)-2-[(thiazole-2-ylamino)methylene]benzothiophene-3-one]"
3,< 50,"O=C1/C(=C/Nc2ncc(Br)s2)Sc2ccccc21 [T2/13, (2Z)-2-[[(5-bromothiazole-2-yl)amino]methylene]benzothiophene-3-one]"
4,< 150,"O=C1/C(=C/Nc2ncc(Cl)s2)Sc2ccccc21 [T2/14, (2Z)-2-[[(5-chlorothiazole-2-yl)amino]methylene]benzothiophene-3-one]"
5,< 250,"O=C(O)c1cnc(N/C=C2\Sc3ccccc3C2=O)s1 [T2/16, 2-[[(z)-(3-oxobenzothiophene-2-ylidene)methyl]amino]thiazole-5-carboxylic acid]"
6,< 150,"NC(=O)c1cnc(N/C=C2\Sc3ccccc3C2=O)s1 [T2/19, 2-[[(z)-(3-oxobenzothiophene-2-ylidene)methyl]amino]thiazole-5-carboxylic acid amide]"
7,< 150,"O=C1/C(=C/Nc2ncns2)Sc2ccccc21 [T2/30, (2Z)-2-[(1,2,4-thiadiazol-5-ylamino)methylene]benzothiophene-3-one]"
8,< 150,"O=C1/C(=C/Nc2nncs2)Sc2ccccc21 [T2/31, (2Z)-2-[(1,3,4-thiadiazol-2-ylamino)methylene]benzothiophene-3-one]"
9,< 250,"O=C1/C(=C/Nc2ncccn2)Sc2ccccc21 [T2/49, (2Z)-2-[(pyrimidine-2-ylamino)methylene]benzothiophene-3-one]"
10,< 25,"O=C1/C(=N/Nc2nccs2)Sc2ccccc21 [T2/50, (2Z)-2-(thiazole-2-ylhydrazono)benzothiophene-3-one]"

# More lines, now with the values behind:
row,Compound,IC50 [µM]
1,"O=C1/C(=C/Nc2nc3ccccc3[nH]2)Sc2ccccc21 [T2/2, (2Z)-2-[(1H-benzimidazole-2-ylamino)methylene]benzothiophene-3-one]",< 150
2,"Cn1c(N/C=C2\Sc3ccccc3C2=O)nc2ccccc21 [T2/3, (2Z)-2-[[(1-methylbenzimidazole-2-yl)amino]methylene]benzothiophene-3-one]",< 150
3,"Cc1coc(N/C=C2\Sc3ccccc3C2=O)n1 [T2/4, (2Z)-2-[[(4-methyloxazole-2-yl)amino]methylene]benzothiophene-3-one]",< 50
4,"O=C1/C(=C/Nc2nc3cc(Cl)ccc3o2)Sc2ccccc21 [T2/5, (2Z)-2-[[(5-chloro-1,3-benzoxazole-2-yl)amino]methylene]benzothiophene-3-one]",250 to 750
5,"O=C1/C(=C/Nc2ncc([N+](=O)[O-])s2)Sc2ccccc21 [T2/12, (2Z)-2-[[(5-nitrothiazole-2-yl)amino]methylene]benzothiophene-3-one]",< 25
6,"COC(=O)c1csc(N/C=C2\Sc3ccccc3C2=O)n1 [T2/18, 2-[[(z)-(3-oxobenzothiophene-2-ylidene)methyl]amino]thiazole-4-carboxylic acid methylester]",< 150
7,"CNC(=O)c1cnc(N/C=C2\Sc3ccccc3C2=O)s1 [T2/20, n-methyl-2-[[(z)-(3-oxobenzothiophene-2-ylidene)methyl]amino]thiazole-5-carboxylic acid amide]",< 250
8,"COc1ccc2nc(N/C=C3\Sc4ccccc4C3=O)sc2c1 [T2/24, (2Z)-2-[[(6-methoxy-1,3-benzothiazole-2-yl)amino]methylene]benzothiophene-3-one]",< 150
9,"O=C1/C(=C/Nc2nc3ccc([N+](=O)[O-])cc3s2)Sc2ccccc21 [T2/25, (2Z)-2-[[(6-nitro-1,3-benzothiazole-2-yl)amino]methylene]benzothiophene-3-one]",< 250
10,"O=C1/C(=C/Nc2nc3c(F)cc(F)cc3s2)Sc2ccccc21 [T2/26, (2Z)-2-[[(4,6-difluoro-1,3-benzothiazole-2-yl)amino]methylene]benzothiophene-3-one]",250 to 750
11,"O=C1/C(=C/Nc2nc3ccc(C(F)(F)F)cc3s2)Sc2ccccc21 [T2/27, (2Z)-2-[[[6-(trifluoromethyl)-1,3-benzothiazole-2-yl]amino]methylene]benzothiophene-3-one]",250 to 750
12,"O=C1/C(=C/Nc2nc3ccc(Br)cc3s2)Sc2ccccc21 [T2/28, (2Z)-2-[[(6-bromo-1,3-benzothiazole-2-yl)amino]methylene]benzothiophene-3-one]",< 150
13,"O=C1/C(=C/Nc2ccc3scnc3c2)Sc2ccccc21 [T2/29, (2Z)-2-[(1,3-benzothiazole-5-ylamino)methylene]benzothiophene-3-one]",250 to 750
14,"O=C1/C(=C/Nc2nnc(Br)s2)Sc2ccccc21 [T2/32, (2Z)-2-[[(5-bromo-1,3,4-thiadiazol-2-yl)amino]methylene]benzothiophene-3-one]",< 150
15,"O=C1/C(=C/Nc2ccccc2[N+](=O)[O-])Sc2ccccc21 [T2/33, (2Z)-2-[(2-nitroanilino)methylene]benzothiophene-3-one]",< 150
16,"O=C1/C(=C\Nc2ccc([N+](=O)[O-])cc2)Sc2ccccc21 [T2/34, (2e)-2-[(4-nitroanilino)methylene]benzothiophene-3-one]",250 to 750
17,"O=C1/C(=C/Nc2cc([N+](=O)[O-])ccc2O)Sc2ccccc21 [T2/35, (2Z)-2-[(2-hydroxy-5-nitro-anilino)methylene]benzothiophene-3-one]",250 to 750
18,"O=C1/C(=C/Nc2cccc(Br)c2)Sc2ccccc21 [T2/37, (2Z)-2-[(3-bromoanilino)methylene]benzothiophene-3-one]",250 to 750
19,"O=C1/C(=C\Nc2cccc3ccccc23)Sc2ccccc21 [T2/39, (2e)-2-[(1-naphthylamino)methylene]benzothiophene-3-one]",250 to 750
20,"O=C1/C(=C/Nc2ncc3ccccc3n2)Sc2ccccc21 [T2/42, (2Z)-2-[(chinazolin-2-ylamino)methylene]benzothiophene-3-one]",250 to 750
21,"Cc1csc(N/N=C2\Sc3ccccc3C2=O)n1 [T2/51, (2Z)-2-[(4-methylthiazole-2-yl)hydrazono]benzothiophene-3-one]",< 25
